According to patent publication US12668591B2, “1,2,4-oxadiazole derivatives as histone deacetylase 6 inhibitors” (Oryzon Genomics, S.A., priority 2017, dated 2026):

Tests used:
HDAC6 [1] = molecular target: T1, HDAC6 (Homo sapiens, UniProt Q9UBN7); assay: HDAC6 enzyme inhibition assay (fluorimetric); type: biochemical; settings: 1 μM compound; 3 h pre-incubation; recombinant full length HDAC6; read-out: HDAC6 % inh @ 1 μM
T1 sequence (Q9UBN7 1-1215): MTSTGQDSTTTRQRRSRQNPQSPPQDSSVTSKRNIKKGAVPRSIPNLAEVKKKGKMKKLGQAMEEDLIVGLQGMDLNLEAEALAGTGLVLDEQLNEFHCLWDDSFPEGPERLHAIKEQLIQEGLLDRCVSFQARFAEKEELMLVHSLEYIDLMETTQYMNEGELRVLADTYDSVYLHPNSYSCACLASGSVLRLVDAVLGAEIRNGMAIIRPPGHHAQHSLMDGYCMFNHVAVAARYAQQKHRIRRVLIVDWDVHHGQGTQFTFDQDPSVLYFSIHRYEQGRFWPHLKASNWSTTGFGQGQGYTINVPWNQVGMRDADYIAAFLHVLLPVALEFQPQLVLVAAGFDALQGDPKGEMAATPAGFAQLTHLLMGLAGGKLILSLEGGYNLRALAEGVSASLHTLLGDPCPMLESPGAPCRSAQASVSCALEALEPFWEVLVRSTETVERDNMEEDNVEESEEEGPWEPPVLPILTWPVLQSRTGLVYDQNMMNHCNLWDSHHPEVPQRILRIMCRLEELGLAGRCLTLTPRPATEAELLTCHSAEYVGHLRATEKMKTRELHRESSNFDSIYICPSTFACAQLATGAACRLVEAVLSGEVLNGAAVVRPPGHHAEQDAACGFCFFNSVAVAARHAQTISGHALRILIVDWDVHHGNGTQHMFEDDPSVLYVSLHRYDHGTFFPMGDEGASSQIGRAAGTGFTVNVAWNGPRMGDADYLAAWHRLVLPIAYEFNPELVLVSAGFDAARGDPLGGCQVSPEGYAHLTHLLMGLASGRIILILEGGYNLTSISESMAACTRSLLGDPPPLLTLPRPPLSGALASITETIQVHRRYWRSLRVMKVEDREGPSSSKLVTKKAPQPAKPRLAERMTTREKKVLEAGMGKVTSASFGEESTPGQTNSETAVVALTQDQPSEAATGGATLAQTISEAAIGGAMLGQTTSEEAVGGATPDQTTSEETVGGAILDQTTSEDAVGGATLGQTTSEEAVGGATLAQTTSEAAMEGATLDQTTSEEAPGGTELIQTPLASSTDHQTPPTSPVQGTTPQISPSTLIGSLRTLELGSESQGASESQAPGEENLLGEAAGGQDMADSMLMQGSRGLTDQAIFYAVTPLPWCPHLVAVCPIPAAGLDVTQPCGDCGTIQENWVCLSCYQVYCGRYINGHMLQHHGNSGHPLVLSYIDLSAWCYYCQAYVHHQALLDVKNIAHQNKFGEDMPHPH
Procedure: (§1) HDAC6 and HDAC2 Enzyme Inhibition Assay
(§2) A fluorimetric assay was used for testing the activity of compounds of the invention against HDAC6 and HDAC2.
(§3) The compounds were dissolved in DMSO. Serial dilutions were prepared in DMSO and then diluted 1:10 in HDAC assay buffer (Tris-buffered solution, BPS Bioscience Inc. #50031). 5 μl of the compound dilution was added to a 50 μl reaction so that the final concentration of DMSO was 1%.
(§4) The compounds were pre-incubated in duplicate at RT for 3 hours in a mixture containing HDAC assay buffer, 5 μg BSA and recombinant HDAC enzyme (see table above). The enzymatic reactions were initiated by the addition of a fluorogenic, acetylated peptide substrate based on a histone protein (BPS Bioscience Inc. #50037) to a final concentration of 10 μM. The enzymatic reaction proceeded for 30 minutes at 37° C. Then, 50 μl of 2× HDAC Developer, which contains peptidase activity and Trichostatin A (BPS Bioscience Inc. #50030) was added and the plate was incubated at RT for an additional 15 minutes. Fluorescence intensity was measured at an excitation of 360 nm and an emission of 460 nm using a Tecan Infinite M1000 microplate reader.
(§5) Trichostatin A (TSA, Selleckchem #S1045) was used as reference inhibitor.
(§6) The fluorescent intensity data were analyzed using the computer software Graphpad Prism (GraphPad Software, San Diego, CA). 100% activity was defined as the fluorescent intensity (Ft) in the absence of the compound. 0% activity was defined as the fluorescent intensity (Fb) in the absence of the enzyme. The percent activity in the presence of each compound was calculated according to the following equation: % activity=(F−Fb)/(Ft−Fb), where F=the fluorescent intensity in the presence of the compound.

HDAC6 [2] = molecular target: T1, HDAC6; assay: In vitro cell-based assay: acetylation levels of Alpha-Tubulin by Western Blot in MOLP8 cells; parameters: endogenous in cells; host or cells: MOLP8; settings: 18 h, acetyl-alpha-tubulin relative band intensity, ACY-1215 1 μM = 100%
Procedure: In Vitro Cell-Based Assay
In order to determine the cellular activity of HDAC6 upon treatment with HDAC6 inhibitors, acetylation levels of Alpha-Tubulin (a HDAC6-specific substrate) were measured by Western Blot. For this, MOLP8 cells were seeded in 6-well plates at a cell density of 500.000 cells/well and treated with the selected compounds at 5 and 1 μM for 18 h at 37° C. and 5% CO2 in a humidified tissue culture incubator. Consecutively, cell pellets were collected and whole protein extracts prepared using RIPA buffer (SIGMA) supplemented with 1× protease inhibitors (cOmplete mini, Roche). Protein concentration was determined with Bradford's reagent (Bio-Rad) as per manufacturer's instructions, and 7 μg of total protein were loaded into pre-cast 10% NuPAGE Novex gels (Life Technologies). Gels were run in […] (Life Technologies) and proteins were transferred using the iBlot 2 Dry Blotting System (Life Technologies). Blots were subsequently rinsed in distilled water and stained with Ponceau S solution (SIGMA). Blots were then washed in distilled water to remove Ponceau excess and scanned with the Epson Perfection V600 Photo professional Scanner. After this, blots were de-stained and blocked in 5% milk/PBS-Tween 0.1% for 1 h at room temperature followed by incubation with anti-Acetyl-alpha Tubulin (SIGMA cat. #T7451, 1:10.000 dilution) and anti-Beta-actin (SIGMA, cat. #A5316, 1:2.000 dilution) primary antibodies in 5% milk/PBS-T 0.1%, overnight at 4° C. on a shaking platform. After incubation, blots were washed 3 times for 5 minutes each in PBS-Tween 0.5% and incubated with anti-mouse HRP-conjugated secondary antibody (Jackson Immuno Research, cat. #115-035-068) at 1:8.000 in 5% milk/PBS-Tween 0.1%, 1 h at room temperature on a shaking platform. After 3 washes of 5 minutes each with PBS-Tween 0.5% and 1 wash in PBS 1×, blots were developed with ECL Plus (GE Healthcare) and the chemiluminescent reaction imaged with the G:Box Chemi XRQ (Syngene) imaging system. WB and Ponceau images were analysed with ImageJ software, WB band intensities normalized by either total protein or Beta-actin content and made relative to ACY-1215 1 μM (equivalent to 100%). ACY-1215 is a HDAC6 inhibitor, and is also known as ricolinostat, with chemical name 2-(diphenylamino)-N-[7-(hydroxyamino)-7-oxoheptyl]-5-pyrimidinecarboxamide. Percentage of band intensities was classified as follows: […]

HDAC2 = molecular target: T2, HDAC2 (Homo sapiens, UniProt Q92769); assay: HDAC2 enzyme inhibition assay (fluorimetric); type: biochemical; settings: 1 μM compound; 3 h pre-incubation; recombinant full length HDAC2; read-out: HDAC2 % inh @ 1 μM
T2 construct: (full length with C-terminal His-tag); His (C); purchased BPS Bioscience Inc. 50002
Procedure: as §1, §2, §3, §4, §5, §6

T2 sequence (Q92769 whole entry): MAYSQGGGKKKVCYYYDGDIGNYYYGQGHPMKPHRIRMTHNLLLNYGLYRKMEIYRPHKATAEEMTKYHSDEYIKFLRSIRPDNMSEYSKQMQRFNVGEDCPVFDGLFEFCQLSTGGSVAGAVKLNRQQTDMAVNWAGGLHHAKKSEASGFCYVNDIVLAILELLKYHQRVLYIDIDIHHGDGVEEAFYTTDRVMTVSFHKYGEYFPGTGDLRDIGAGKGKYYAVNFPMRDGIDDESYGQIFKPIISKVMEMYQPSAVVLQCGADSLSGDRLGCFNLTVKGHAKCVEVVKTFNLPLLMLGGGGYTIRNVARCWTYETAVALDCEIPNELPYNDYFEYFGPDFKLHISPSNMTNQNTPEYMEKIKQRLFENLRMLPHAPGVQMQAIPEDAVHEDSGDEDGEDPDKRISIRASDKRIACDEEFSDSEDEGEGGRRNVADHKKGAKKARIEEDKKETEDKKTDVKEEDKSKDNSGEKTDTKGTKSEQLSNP

| Structure (SMILES) | inhibition at 1 µM (HDAC6 [1]) [%] | Cellular activity @1 uM (HDAC6 [2]) | Cellular activity @5 uM (HDAC6 [2]) | inhibition at 1 µM (HDAC2) [%] |
| --- | --- | --- | --- | --- |
| CCCCn1ccc2cc(-c3cc(-c4noc(C(F)(F)F)n4)ccn3)ncc21 [Example 1, 3-(2-(1-Butyl-1H-pyrrolo[2,3-c]pyridin-5-yl)pyridin-4-yl)-5-(trifluoromethyl)-1,2,4-oxadiazole] | 79 | − (<50) | + (50-150) |  |
| FC(F)(F)c1nc(-c2ccnc(-c3cc4c(CN5CCCCC5)n[nH]c4cn3)c2)no1 [Example 1aa, 3-(2-(3-(Piperidin-1-ylmethyl)-1H-pyrazolo[3,4-c]pyridin-5-yl)pyridin-4-yl)-5-(trifluoromethyl)-1,2,4-oxadiazole] | 92 | + (50-150) | + (50-150) |  |
| FC1(F)CCN(CCn2ccc3cnc(-c4cc(-c5noc(C(F)(F)F)n5)ccn4)cc32)CC1 [Example 1ab, 3-(2-(1-(2-(4,4-Difluoropiperidin-1-yl)ethyl)-1H-pyrrolo[3,2-c]pyridin-6-yl)pyridin-4-yl)-5-(trifluoromethyl)-1,2,4-oxadiazole] | 93 | ++ (150-300) | ++ (150-300) | 38 |
| CN1CCC(C(=O)Nc2ccc(-c3cc(-c4noc(C(F)(F)F)n4)ccn3)nc2)CC1 [Example 1ac, 1-Methyl-N-(4′-(5-(trifluoromethyl)-1,2,4-oxadiazol-3-yl)-[2,2′-bipyridin]-5-yl)piperidine-4-carboxamide] | 78 | + (50-150) | ++ (150-300) | 18 |
| O=C(CC1CCC1)Nc1ccnc(-c2cc(-c3noc(C(F)(F)F)n3)ccn2)c1 [Example 1ae, 2-Cyclobutyl-N-(4′-(5-(trifluoromethyl)-1,2,4-oxadiazol-3-yl)-[2,2′-bipyridin]-4-yl)acetamide] | 85 | + (50-150) | + (50-150) | 5 |
| CCCn1cc(CO)c2cc(-c3cc(-c4noc(C(F)(F)F)n4)ccn3)ncc21 [Example 1ah, (1-Propyl-5-(4-(5-(trifluoromethyl)-1,2,4-oxadiazol-3-yl)pyridin-2-yl)-1H-pyrrolo[2,3-c]pyridin-3-yl)methanol] | 96 | + (50-150) | ++ (150-300) | 35 |
| FC(F)(F)c1nc(-c2ccnc(-c3cc4[nH]ccc4cn3)c2)no1 [Example 1ak, 3-(2-(1H-Pyrrolo[3,2-c]pyridin-6-yl)pyridin-4-yl)-5-(trifluoromethyl)-1,2,4-oxadiazole] | 90 | + (50-150) | ++ (150-300) | 14 |
| CCCCn1c(C(=O)N(C)C)cc2cc(-c3cc(-c4noc(C(F)(F)F)n4)ccn3)ncc21 [Example 1b, 1-Butyl-N,N-dimethyl-5-(4-(5-(trifluoromethyl)-1,2,4-oxadiazol-3-yl)pyridin-2-yl)-1H-pyrrolo[2,3-c]pyridine-2-carboxamide] | 84 | + (50-150) | ++ (150-300) |  |
| CCCCn1c(C(=O)NCC)cc2cc(-c3cc(-c4noc(C(F)(F)F)n4)ccn3)ncc21 [Example 1d, 1-Butyl-N-ethyl-5-(4-(5-(trifluoromethyl)-1,2,4-oxadiazol-3-yl)pyridin-2-yl)-1H-pyrrolo[2,3-c]pyridine-2-carboxamide] | 78 | + (50-150) | ++ (150-300) |  |
| CCCn1cc(CN2CCOCC2)c2cc(-c3cc(-c4noc(C(F)(F)F)n4)ccn3)ncc21 [Example 1h, 4-((1-Propyl-5-(4-(5-(trifluoromethyl)-1,2,4-oxadiazol-3-yl)pyridin-2-yl)-1H-pyrrolo[2,3-c]pyridin-3-yl)methyl)morpholine] | 96 | + (50-150) | ++ (150-300) |  |
| CCN(CC)CCCOc1cnc(-c2cc(-c3noc(C(F)(F)F)n3)ccn2)nc1 [Example 1m, N,N-Diethyl-3-(2-(4-(5-(trifluoromethyl)-1,2,4-oxadiazol-3-yl)pyridin-2-yl)pyrimidin-5-yloxy)propan-1-amine] | 81 | − (<50) | + (50-150) |  |
| FC(F)(F)c1nc(-c2ccnc(-c3cc4c(ccn4CC4CCOCC4)cn3)c2)no1 [Example 1r, 3-(2-(1-((Tetrahydro-2H-pyran-4-yl)methyl)-1H-pyrrolo[3,2-c]pyridin-6-yl)pyridin-4-yl)-5-(trifluoromethyl)-1,2,4-oxadiazole] | 92 | ++ (150-300) | ++ (150-300) |  |
| FC(F)(F)c1nc(-c2ccnc(-c3cc(OCCN4CCOCC4)ccn3)c2)no1 [Example 1t, 4-(2-((4′-(5-(Trifluoromethyl)-1,2,4-oxadiazol-3-yl)-[2,2′-bipyridin]-4-yl)oxy)ethyl)morpholine] | 88 | − (<50) | + (50-150) |  |
